Laboratory results reported in PubChem BioAssay AID602164 (The Scripps Research Institute Molecular Screening Center, 2012).
pIC50: −log10 of the molar value.

The compounds below were run on 2B4/Mcl-1 cells apoptosis, absorbance viability (assay: Mcl-1-selective cell killing, 2B4 lines – absorbance, 2B4/Mcl1 vs 2B4/Bcl-2, selectivity assay for MCL1-BIM inhibitor project, late-stage follow-up (AID 602164)).

`CN1CCN(C(c2ccc(F)cc2)c2ccc3cccnc3c2O)CC1` (stereo not drawn) and `CCN1CCN(C(c2cccs2)c2ccc3cccnc3c2O)CC1` (stereo not drawn) are within 0.2 log units of each other in pIC50: 5.40 for the first, 5.42 for the second.

`Oc1c(C(c2cccs2)N2CCN(c3ccccn3)CC2)ccc2cccnc12` (stereo not drawn) and `OCCN1CCN(C(c2cccs2)c2ccc3cccnc3c2O)CC1` (stereo not drawn) are within 0.2 log units of each other in pIC50: 5.43 for the first, 5.29 for the second.

`Oc1c(C(c2cccs2)N2CCCCC2)ccc2cccnc12` (stereo not drawn) and `Oc1c(C(Nc2ccccn2)c2cccs2)ccc2cccnc12` (stereo not drawn) are within 0.2 log units of each other in pIC50: 5.36 for the first, 5.51 for the second.

`CC(C)Oc1ccc(C(Nc2ccccn2)c2ccc3cccnc3c2O)cc1` (stereo not drawn) and `Cc1ccnc(NC(c2cccs2)c2ccc3cccnc3c2O)c1` (stereo not drawn) are within 0.2 log units of each other in pIC50: 5.64 for the first, 5.62 for the second.
